# Reference: ChEMBL document CHEMBL1130373, “Dual CCK-A and -B receptor antagonists (I) C9-methyl-1,4-benzodiazepines” (Bioorg Med Chem Lett, 1997)
# Key:
# [1] = biological target: T1, Cholecystokinin receptor type A (Rattus norvegicus, UniProt P30551); experiment: Inhibition of [125I]Cholecystokinin-8 (125I-CCK-8) binding to Cholecystokinin type A receptor of rat pancreatic membranes; type: cell membranes, Membrane
# T1 sequence (P30551 whole entry): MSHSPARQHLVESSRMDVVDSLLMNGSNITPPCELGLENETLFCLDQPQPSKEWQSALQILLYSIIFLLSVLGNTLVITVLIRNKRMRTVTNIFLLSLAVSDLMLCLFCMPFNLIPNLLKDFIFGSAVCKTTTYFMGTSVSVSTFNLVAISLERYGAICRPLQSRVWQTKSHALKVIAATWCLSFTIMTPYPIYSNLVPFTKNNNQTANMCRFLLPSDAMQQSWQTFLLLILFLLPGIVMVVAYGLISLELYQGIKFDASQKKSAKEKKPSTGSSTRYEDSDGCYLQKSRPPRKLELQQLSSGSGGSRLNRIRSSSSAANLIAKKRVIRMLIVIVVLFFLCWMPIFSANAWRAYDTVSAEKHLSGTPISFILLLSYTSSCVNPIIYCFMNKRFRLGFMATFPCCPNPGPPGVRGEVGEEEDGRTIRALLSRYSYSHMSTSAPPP
# [2] = Selectivity for cholecystokinin A and B receptors
# [3] = biological target: T1, Cholecystokinin receptor type A; experiment: Inhibition of [125I]Cholecystokinin-8 binding to Cholecystokinin type A receptor of rat pancreatic membranes; type: cell membranes, Membrane
SMILES,IC50 [1],Selectivity [2],IC50 [3]
Cc1cccc2c1N(CC(=O)N1CC3CCC(CC3)C1)C(=O)C(NC(=O)Nc1cccc(Br)c1)N=C2c1ccccc1F (configuration not stated),5.1 nM,2.8,–
Cc1cccc(NC(=O)NC2N=C(c3ccccc3F)c3ccccc3N(CC(=O)N3CC4CCC(CC4)C3)C2=O)c1 (configuration not stated),62 nM,710,–
"Cc1cccc2c1N(CC(=O)N1CC3CCC(CC3)C1)C(=O)C(NC(=O)Nc1cccc(-c3nn[nH]n3)c1)N=C2c1ccccc1F (single isomer, unassigned; (+)) [listing 1 of 2 here]",–,24,–
"Cc1cccc2c1N(CC(=O)N1CC3CCC(CC3)C1)C(=O)C(NC(=O)Nc1cccc(-c3nn[nH]n3)c1)N=C2c1ccccc1F (single isomer, unassigned; (+)) [listing 2 of 2 here]",–,–,9.2 nM
COc1cccc(NC(=O)NC2N=C(c3ccccc3F)c3cccc(C)c3N(CC(=O)N3CC4CCC(CC4)C3)C2=O)c1 (configuration not stated),7.3 nM,7.3,–
Cc1cccc2c1N(CC(=O)N1CC3CCC(CC3)C1)C(=O)C(NC(=O)Nc1cccc(-c3nn[nH]n3)c1)N=C2c1ccccc1F (stereo in doubt; 11) [listing 1 of 2 here],14 nM,–,–
Cc1cccc2c1N(CC(=O)N1CC3CCC(CC3)C1)C(=O)C(NC(=O)Nc1cccc(C(=O)O)c1)N=C2c1ccccc1F (configuration not stated),160 nM,170,–
Cc1cccc2c1N(CC(=O)N1CC3CCC(CC3)C1)C(=O)C(NC(=O)Nc1cccc(-c3nn[nH]n3)c1)N=C2c1ccccc1F (stereo in doubt; (-)-11) [listing 1 of 2 here],–,–,670 nM
CC(=O)c1cccc(NC(=O)NC2N=C(c3ccccc3F)c3cccc(C)c3N(CC(=O)N3CC4CCC(CC4)C3)C2=O)c1 (configuration not stated),13 nM,15,–
Cc1cccc2c1N(CC(=O)N1CC3CCC(CC3)C1)C(=O)C(NC(=O)Nc1cccc(-c3nn[nH]n3)c1)N=C2c1ccccc1F (stereo in doubt; 11) [listing 2 of 2 here],–,21,–
Cc1cccc(NC(=O)NC2N=C(c3ccccc3F)c3cccc(C)c3N(CC(=O)N3CC4CCC(CC4)C3)C2=O)c1 (configuration not stated),17 nM,36,–
CSc1cccc(NC(=O)NC2N=C(c3ccccc3F)c3cccc(C)c3N(CC(=O)N3CC4CCC(CC4)C3)C2=O)c1 (configuration not stated),21 nM,57,–
Cc1cccc2c1N(CC(=O)N1CC3CCC(CC3)C1)C(=O)C(NC(=O)Nc1cccc(Cl)c1)N=C2c1ccccc1F (configuration not stated),7.4 nM,3.7,–
Cc1cccc2c1N(CC(=O)N1CC3CCC(CC3)C1)C(=O)C(NC(=O)Nc1cccc(-c3nn[nH]n3)c1)N=C2c1ccccc1F (stereo in doubt; (-)-11) [listing 2 of 2 here],–,110,–
